# What was measured:
# [1] = Oxygen Radical Absorbance Capacity (ORAC) antioxidant potential; design: unit not given here; details: calculated from ORAC values (AUC minus blank); Trolox as internal control
# Experimental: Antioxidant potential is evaluated using the Oxygen Radical Absorbance Capacity (ORAC) protocol. ORAC is a chemical in-vitro method based on the hydrogen atom transfer (HAT) mechanism. ORAC measures antioxidant inhibition of peroxyl radical induced oxidations and thus reflects classical radical chain breaking antioxidant activity by H atom transfer. In this assay, the peroxyl radical reacts with a fluorescent probe to form a non-fluorescent product. This is quantitated using a fluorescence measurement. Antioxidant capacity is determined by decreased rate and amount of product formed over time. This assay depends upon the free radical damage to the fluorescent probe resulting in the change in its fluorescence intensity. The change of fluorescence intensity is an indicator of the degree of free radical damage. In the presence of an antioxidant, the inhibition of free radical damage is reflected in higher fluorescence intensity and can be measured as antioxidant capacity against the free radicals. The uniqueness of ORAC assay is that the reaction is driven to completion. This allows calculation of the area under the curve (AUC) and gives an absolute quantitation of antioxidancy as opposed to relative measurements in many other assays.
# As noted, the longer it takes to observe a decrease in fluorescence, the higher the antioxidant (AO) potential. From the AUC for a given antioxidant, the AUC for blank is subtracted to give its ORAC value. The concentration of AO needed to give the same AUC values as Trolox is calculated and used to represent the Trolox equivalent AO Capacity (TEAC). Trolox is ((±)-6-Hydroxy-2,5,7,8-tetramethylchromane-2-carboxylic acid, CAS #53188-07-1), and is used as an internal control.
# The ORAC test is conducted in the compounds of Examples 1-5 (inventive compounds) as well as to Vitamin C, Vitamin E, and the following comparative compounds:
# The TEAC values calculated from the ORAC values are listed the Table 2.
# Type I collagen = assay: AAPH radical induced collagen degradation, SDS-PAGE of remaining γ-chain; assay type: biochemical; details: incubated with AAPH at 50° C. for 90 mins; antioxidants at same concentration; FIG. 1
# Experimental: Type I collagen, typically found in abundance in skin, is dissolved in 0.04 M acetic acid, pH 4.3, prior to different treatments. For radical induced collagen degradation, aqueous radical initiator 2,2′-azobis-2-methyl-propanimidamide dihydrochloride (AAPH) is used. The collagen samples are incubated with AAPH in the presence of VAN-IPHA (Example 3), pHBz-IPHA (Example 6), and vitamin E (comparative) of the same concentration to determine the efficacy of these antioxidants in preventing collagen degradation. After incubation at 50° C. for 90 mins, the collagen samples are analyzed by SDS-PAGE to determine the degree of degradation by the remaining amount of γ-chain, which is a covalently cross-linked trimer for collagen.
# collagen = assay: UVA-induced collagen degradation, SDS-PAGE / densitometry of collagen γ-bands; assay type: biochemical; details: antioxidant at 238 μM, UVA irradiation, FIG. 3
# Experimental: FIG. 3 is a densitometry plot of collagen γ-bands on SDS-PAGE of samples containing antioxidant at concentration of 238 μM.
# In addition to the oxidative stress due to radical and ROS generation, oxidative damage to collagen can also be induced by UVA irradiation. Similar to the radical-induced collagen degradation, the effect of UVA in collagen degradation is mitigated by the presence of nitrones.
# Similar to the prevention of radical-induced degradation, better efficacy in the inhibitory effect of preventing UVA-induced degradation is also observed for VAN-IPHA (FIG. 3). In this analysis, the effects of VAN-IPHA and pHBz-IPHA are compared to a highly efficacious antioxidant, Resveratrol. […] The stability of nitrones of the invention provide an advantageous alternative solution for antioxidant needs in cosmetic applications, such as anti-aging.
Compound,TEAC (Trolox equivalent AO Capacity) [1],melting point [°C],extent of collagen degradation (remaining γ-chain) (Type I collagen),inhibitory effect of preventing UVA-induced collagen degradation (collagen)
"Cc1cc(/C=[N+](\[O-])C(C)C)cc(C)c1O [DMHBz-IPHA, (Z)-N-(4-hydroxy-3,5-dimethylbenzylidene)propan-2-amine oxide]",1.56,–,–,–
"CC(C)(C)/[N+]([O-])=C/c1ccccc1 [PBN, reference compound]",0.04,–,–,–
"CC(C)/[N+]([O-])=C/c1ccccc1O [SAL-IPHA, (Z)-N-(2-hydroxybenzylidene)propan-2-amine oxide]",3.02,–,–,–
"Cc1cc(C(C)(C)C)c(O)c(C(C)(C)C)c1 [BHT, reference compound]",0.11-0.21,–,–,–
"CCCC/C=[N+](\[O-])C(C)C [VAL-IPHA, reference compound]",0.18,–,–,–
"CC(C)/[N+]([O-])=C/c1ccc(O)cc1 [pHBz-IPHA, (Z)-N-(4-hydroxybenzylidene)propan-2-amine oxide]",8.67,217 to 218,–,–
"COc1cc(/C=[N+](\[O-])C(C)C)ccc1O [VAN-IPHA, (Z)-N-(4-hydroxy-3-methoxybenzylidene)propan-2-amine oxide]",5.41,178 to 180,significantly less,better efficacy than Resveratrol
Vitamin E [reference compound],0.13,–,–,–
"COc1cc(/C=[N+](\[O-])C(C)(C)C)ccc1O [VAN-tBHA, (Z)-N-(4-hydroxy-3-methoxybenzylidene)-2-methylpropan-2-amine oxide]",4.42,–,–,–
"O=C1O[C@H]([C@@H](O)CO)C(O)=C1O [Vitamin C, reference compound]",0.76,–,–,–

# Source: patent publication US9452119B2, “Nitrone compounds and their use in personal care” (Dow Global Technologies LLC, priority 2011, dated 2016)
